Experimental data reported in US5010084A, “Imidazoquinolone derivatives” (Kyowa Hakko Kogyo Co., Ltd., priority 1989, dated 1991).
Where a name gives a salt, the structure may show the parent alone.

Assays:
[1] = tested on: zig-zag strips of the tracheae (passively sensitized guinea pigs); assay: Effects on passive Schultz-Dale reaction (broncho-dilatory effects); assay type: cell-based, guinea pig (male Hartley); details: Cavia porcellus; guinea pig trachea contracted with antigen EWA 1 μg/ml, 37° C., cumulative concentration-relaxation curves; read-out: Passive Schultz-Dale reaction (IC50), concentration of 50% relaxation rate
Description: Male Hartley guinea pigs weighing 350 to 500 g were passively sensitized by intraperitoneal injection of rabbit anti-egg white albumin (EWA) serum prepared by the method of Eda et al. [Folia pharmacol., Japon 66, 237, (1970)]. After 24 hours, the guinea pigs were stunned and exsanguinated, and then tracheae were removed. The zig-zag strips of the tracheae were prepared by the method of Emmerson and Mackay [J. Pharm. Pharmacol., 31, 798, (1979)]. The strips were suspended in Krebs-Henseleit solution at 37° C. under aeration of a mixed gas of 95% oxygen and 5% carbon dioxide, and equilibrated for one hour. Antigen (EWA) was then introduced in the solution (final concentration; 1 μg/ml), and the contraction was measured by […] (TD-112s, made by Nihon Kohden K.K., Japan) and recorded on a recorder (Type 3066, made by Yokogawa-Hokushin Denki, K.K. Japan). After the contraction curves reached plateau, the compounds were successively added in order to get cumulative concentration-relaxation curves.

[2] = tested on: passively sensitized guinea pigs, experimental asthma; assay: Effects on experimental asthma; assay type: in vivo, guinea pig (male Hartley); details: guinea pig, 50 mg/kg orally, 1 hour before aerosol of 1.5% EWA; diphenhydramine and propranolol pretreated; control 254
Description: Guinea pigs were passively sensitized as follows. Male Hartley guinea pigs weighing 350 to 500g were intraperitoneally injected with 1 ml of rabbit EWA serum prepared by the method of Eda et al. [Folia pharmacol., Japon, 66, 237 (1970)]. The animals were treated with intraperitoneal injection of diphenhydramine (20 mg/kg) and propranolol (5 mg/kg), 30 minutes before administration of test compounds. 17 hours after the sensitization, the test compounds (50 mg/kg) were orally administrated to sensitized animals. After one hour from the administration of the test compounds, the guinea pigs were placed in plastic observation box and were exposed to an aerosal antigen of 1.5% EWA. The time until the onset of respiratory […] symptom [collapse time (second)] was measured as a result of experimental asthma.

Acute toxicity = details: mouse, in vivo; male dd-mice, po, mortality for seven days
Description: The compounds were orally administrated (po: 300 mg/kg) to male dd-mice weighing 20 to 25 g. LD50 was determined by observing the mortality for seven days after the administration.

SMILES	IC50 [1]	Experimental asthma, collapse time (time until the onset of respiratory distresslike symptom) [2]	LD50 at 168 h (Acute toxicity)
Cn1c(=O)c2[nH]cnc2n(C)c1=O [Aminophylline, reference compound]	23 µM		
CCCCn1c(=O)c2c(ncn2C)c2ccccc21 [Compound 1, 5-n-Butyl-3-methyl-3H,5H-imidazo[4,5,-c]quinolin-4-one]	6.7 µM	429 s	> 200 mg/kg
CCCCn1c(=O)c2c(ncn2CC)c2ccccc21.Cl [Compound 2, 5-n-Butyl-3-ethyl-3H,5H-imidazo[4,5-c]quinolin-4-one hydrochloride]	2 µM		> 300 mg/kg
CCCCn1c(=O)c2c(ncn2CCC)c2ccccc21.Cl [Compound 3, 5-n-Butyl-3-n-propyl-3H,5H-imidazo[4,5-c]quinolin-4-one hydrochloride]	6.8 µM	348 s	> 300 mg/kg
CCCCn1c(=O)c2c(ncn2C(C)C)c2ccccc21 [Compound 4, 5-n-Butyl-3-isopropyl-3H,5H-imidazo[4,5,-c]quinolin-4-one hydrochloride]	3.7 µM		> 300 mg/kg
CCCCn1cnc2c3ccccc3n(CCCC)c(=O)c21 [Compound 5, 3,5-Di-n-Butyl-3H,5H-imidazo [4,5,-c] quinolin-4-one hydrochloride]			> 300 mg/kg
CCCCn1c(=O)c2c(ncn2CC(C)=O)c2ccccc21 [Compound 6, 3-Acetonyl-5-n-butyl-3H,5H-imidazo[4,5,-c]quinolin-4-one]	7.9 µM	530 s	> 300 mg/kg
CCCCn1c(=O)c2c(ncn2CC(=O)OC(C)(C)C)c2ccccc21 [Compound 7, 3-tert-Butoxycarbonylmethyl-5-n-butyl-3H,5H-imidazo[4,5-c]quinolin-4-one]	0.47 µM		
CCCCn1c(=O)c2c(ncn2CC(=O)O)c2ccccc21 [Compound 8, 5-n-Butyl-3-carboxymethyl-3H,5H-imidazo[4,5,-c]quinolin-4-one]	6.7 µM		
CCn1c(=O)c2c(ncn2C)c2ccccc21 [Compound 9, 5-Ethyl-3-methyl-3H,5H-imidazo[4,5,-c]quinolin-4-one]	1.3 µM		
Cn1c(=O)c2[nH]cnc2n(C)c1=O [Theophylline, reference compound]		414 s	
